Experimental data: publication PMC5519068 (PLoS ONE, 2017)
pIC50: −log10 of the molar value. Like-named read-outs stand apart in the source and are kept apart here.

How the values were obtained:
[1] = system: Flt3-ITD+ AML cell lines (MV4-11, MOLM-13, MOLM-14); experiment: Growth inhibition across Flt3-ITD+ AML cell lines; format: cell-based; conditions: Homo sapiens, 72 h
Experimental: (§1) Cells were seeded at a density of 100,000 cells per 1.0 ml in 48-well culture plates. Compounds were added to various concentrations while holding the DMSO concentration constant at 0.1%. Cell viability was assessed 72 hours later using the CellTiter-Blue Cell Viability assay (Promega) according to the manufacturer’s protocol and a SpectraMax Multi-Mode Microplate Reader (Molecular Devices). IC50 values were determined by non-linear regression analysis of concentration-response curves using the GraphPad PRISM software package (version 6.0). Apoptosis was determined using the same cell culture conditions and the Apo-ONE Homogeneous Caspase-3/7 Assay (Promega) and the manufacturer’s protocol.
Raw fluorescence data were corrected for background and then normalized to cultures grown in the presence of the DMSO carrier solvent. Each assay condition was performed in triplicate, and results are presented as the mean of the normalized values ± the SD.

[2] = system: Fes in TF-1/Flt3-ITD cells; experiment: Immunoprecipitation/immunoblot of Fes pY713 in TF-1/Flt3-ITD cells; format: cell-based, human; conditions: compound at in vitro IC90 for Fes, 16 h (tandutinib: IC90 for Flt3-ITD, 6 h)
Experimental: (§2) AML cells (2.5 x 10^6 in 5 mL) were cultured in the presence of kinase inhibitors or DMSO alone for 6 to 16 hours prior to lysis by sonication in RIPA buffer (50 mM Tris-HCl, pH 7.4, 150 mM NaCl, 1 mM EDTA, 1% Triton X-100, 0.1% SDS, 1% sodium deoxycholate) supplemented with 1 mM sodium orthovanadate, 1 mM sodium fluoride, 5 units/ml Benzonase (Novagen), and SigmaFAST EDTA-free protease inhibitor cocktail (Sigma). Flt3 and Fes were immunoprecipitated from 1 mg of cell lysate with 2 μg of antibody and 25 μL of protein G-Sepharose beads (Life Technologies) overnight at 4°C. Immunoprecipitates were washed three times by resuspension in 1.0 ml of RIPA buffer. Immunoprecipitated proteins were separated by SDS-PAGE, transferred to PVDF membranes and probed with the indicated antibodies followed by alkaline phosphatase-linked secondary antibodies. CDP-Star Western Blot Chemiluminescence Reagent (Perkin-Elmer) was used for detection.
(§3) Raw fluorescence data were corrected for background and then normalized to cultures grown in the presence of the DMSO carrier solvent. Each condition was performed in triplicate, and results are presented as the mean of the normalized values ± the SD. The resulting dose-response curves were fitted by non-linear regression analysis for estimation of the IC50 values (see Table 2). […] Fes and Flt3 kinase proteins were then immunoprecipitated from cell lysates followed by immunoblotting with antibodies to phosphotyrosine (pTyr), the Fes activation loop phosphotyrosine (pY713), as well as the Flt3 and Fes proteins.

[3] = system: T1, Fes in MV4-11 and MOLM-14 cells; experiment: Immunoprecipitation/immunoblot of Fes activation loop phosphorylation (pY713) in AML cells; format: cell-based, human; conditions: compound at in vitro IC90 for Fes, 16 h (tandutinib: IC90 for Flt3-ITD, 6 h)
T1 construct: endogenous in cells; host or cells: MV4-11 and MOLM-14
Experimental: as §2
Fes and Flt3 kinase proteins were then immunoprecipitated from cell lysates, followed by immunoblotting with antibodies to phosphotyrosine (pTyr), the Fes activation loop phosphotyrosine (pY713), as well as the Flt3 and Fes proteins.

[4] = system: TF-1 cells transduced with an empty retroviral vector (Control); experiment: Inhibitor sensitivity of TF-1 cell populations, CellTiter-Blue, 72 h; format: cell-based, human; conditions: Homo sapiens, TF-1; empty vector control, 72 h
Experimental: as §1
(§4) For each retroviral transduction, TF-1 cells (1 x 10^6) were suspended in 5 mL of undiluted viral supernatant and plated in one well of a 6-well tissue culture dish. Polybrene (Sigma) was added to a final concentration of 4 μg/mL and the TF-1 cells were centrifuged at 1000 x g for 3 hours to enhance retroviral mediated gene transfer. After centrifugation, the virus was removed and replaced with fresh medium.
as §3

TF-1/Flt3-ITD cells = experiment: as above; format: cell-based, human
Experimental: as §1, §4, §3

TF-1/Flt3-D835Y cells = experiment: as above; format: cell-based, human
Experimental: as §1, §4, §3

MV4-11 cells = experiment: Growth inhibition, CellTiter-Blue viability, 72 h; format: cell-based; conditions: Homo sapiens, MV4-11 (Flt3-ITD+), read-out: Growth Suppression in AML Cell Lines (IC50, nM) MV4-11
Experimental: as §1
Fig 2 Fes tyrosine kinase inhibitors induce growth arrest in Flt3-ITD^+ AML cell lines. A) The Flt3-ITD^+ cell lines MV4-11, MOLM-13, and MOLM-14, along with THP-1 (wild-type FLT3) were incubated with each of the kinase inhibitors shown over a range of concentrations, and cell viability was measured 72 h later using the CellTiter-Blue Assay (see Materials and methods). Raw fluorescence data were corrected for background and then normalized to cultures grown in the presence of the DMSO carrier solvent. Each assay condition was performed in triplicate, and results are presented as the mean of the normalized values ± the SD. The resulting dose-response curves were fitted by non-linear regression analysis, and the resulting IC50 values are shown in Table 1.

Flt3-D835Y kinase domain = biological target: T2, Flt3-D835Y kinase domain (Homo sapiens, UniProt P36888, D835Y); experiment: In vitro kinase assay (Z'-LYTE); format: biochemical; conditions: for IC50: ATP at Km
T2 construct: Recombinant Flt3-WT, Flt3-ITD, and Flt3-D835Y kinase domain proteins were purchased from Life Technologies; purchased Life Technologies
T2 sequence (P36888 610-943 D835Y limits assumed): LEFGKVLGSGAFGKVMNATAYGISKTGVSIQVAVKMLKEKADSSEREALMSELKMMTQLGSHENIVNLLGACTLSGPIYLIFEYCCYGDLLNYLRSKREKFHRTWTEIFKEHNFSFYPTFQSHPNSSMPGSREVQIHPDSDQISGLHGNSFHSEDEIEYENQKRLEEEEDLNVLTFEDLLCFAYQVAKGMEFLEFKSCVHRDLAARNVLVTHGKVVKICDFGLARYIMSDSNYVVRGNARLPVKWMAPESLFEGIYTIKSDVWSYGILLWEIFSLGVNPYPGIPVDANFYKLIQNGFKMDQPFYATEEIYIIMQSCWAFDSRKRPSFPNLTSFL
Experimental: (§5) Recombinant protein kinase assays were performed using the FRET-based Z’-LYTE Kinase Assay according to the manufacturer’s instructions (Thermo Fisher Scientific). […] The Tyr-2 peptide was used as substrate for all recombinant kinases. Kinases were preincubated with inhibitors for 30 minutes, followed by addition of ATP and peptide substrate for 1 hour. Reactions were quenched by addition of development reagent, followed by incubation for an additional hour prior to fluorescence measurements on a SpectraMax M5 microplate reader. IC50 values were calculated by non-linear regression analysis of the resulting concentration-response curves using GraphPad PRISM.

Flt3-ITD kinase domain = Flt3-ITD kinase domain (Homo sapiens, UniProt P36888); experiment: In vitro kinase assay (Z'-LYTE); format: biochemical; conditions: ATP at Km
Experimental: as §5

Flt3-WT kinase domain = biological target: T3, Flt3-WT kinase domain (Homo sapiens, UniProt P36888); experiment: In vitro kinase assay (Z'-LYTE); format: biochemical; conditions: ATP at Km
T3 construct: Recombinant Flt3-WT, Flt3-ITD, and Flt3-D835Y kinase domain proteins were purchased from Life Technologies; purchased Life Technologies
Experimental: as §5

`CCN1CCN(Cc2ccc(NC(=O)c3ccc(C)c(Oc4ccnc5[nH]ccc45)c3)cc2C(F)(F)F)CC1` [HG7-92-01] was tested, and the pIC50 ([1]; MV4-11, MOLM-13, MOLM-14, read-out: IC50 values for growth inhibition, range over the Flt3-ITD+ AML cell lines) was 6.78 to 7.72, the “Inhibition of Fes activation loop phosphorylation in TF-1/Flt3-ITD cells” value [2] was “inhibited both Flt3-ITD and Fes” and the “Inhibition of Fes activation loop phosphorylation in MV4-11 and MOLM-14 cells” value [3] was “inhibited Flt3-ITD and Fes in both cell lines”. For the same compound, the IC50 [4] was > 1000 nM, the IC50 (TF-1/Flt3-ITD cells; Homo sapiens, TF-1, 72 h; read-out: Inhibitor sensitivity of TF-1 Cell Populations (IC50, nM) Flt3-ITD) was 29 nM and the “Activity on TF-1/Flt3-D835Y cell growth” value (TF-1/Flt3-D835Y cells; 72 h) was “devoid of activity”. For the same compound, the IC50 (TF-1/Flt3-D835Y cells; Homo sapiens, TF-1, 72 h; read-out: Inhibitor sensitivity of TF-1 Cell Populations (IC50, nM) Flt3-D835Y) was > 1000 nM, the IC50 (MV4-11 cells) was 19 nM and the IC50 (Flt3-D835Y kinase domain) was 3650 nM. The IC50 (Flt3-ITD kinase domain) was 149 nM and the IC50 (Flt3-WT kinase domain) was 536 nM.

`COc1cc(N2CCC(O)CC2)ccc1Nc1nc(Nc2ccccc2S(=O)(=O)C(C)C)c2cn[nH]c2n1` [WZ4-49-1] was tested, and the pIC50 ([1]; read-out: IC50 values for growth inhibition in all three Flt3-ITD+ AML cell lines) was ~6.00, the “Inhibition of Fes activation loop phosphorylation in TF-1/Flt3-ITD cells” value [2] was “only inhibited the activity of Fes” and the “Inhibition of Fes activation loop phosphorylation in MV4-11 and MOLM-14 cells” value [3] was “only inhibited Fes”. The IC50 [4] was > 3000 nM, the IC50 (TF-1/Flt3-ITD cells; Homo sapiens, TF-1, 72 h, read-out: Inhibitor sensitivity of TF-1 Cell Populations (IC50, nM) Flt3-ITD) was 466 nM and the “Potency in TF-1/Flt3-ITD cells compared to the Flt3-ITD+ AML cells” value (TF-1/Flt3-ITD cells; growth inhibition) was “about two-fold higher”. For the same compound, the IC50 (TF-1/Flt3-D835Y cells; Homo sapiens, TF-1, 72 h, read-out: Inhibitor sensitivity of TF-1 Cell Populations (IC50, nM) Flt3-D835Y) was 597 nM, the IC50 (MV4-11 cells) was 965 nM and the IC50 (Flt3-D835Y kinase domain) was 642 nM. The “Sensitivity of Flt3-D835Y compared to wild-type Flt3 in vitro” value (Flt3-D835Y kinase domain; in vitro kinase assays) was “about 5 fold”, the IC50 (Flt3-ITD kinase domain) was 1390 nM and the IC50 (Flt3-WT kinase domain) was 3140 nM.
